Reference: PubChem BioAssay (NCI)
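Results reflect a 48-hour exposure of cells in 96-well plates to compound at five concentrations. At the TGI there is no net growth.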

Experiments:
Assay in all cases: NCI-60 cell line screen, 48 h
SK-MEL-5 melanoma = test system: SK-MEL-5 melanoma
IGROV1 ovarian = test system: IGROV1 ovarian
HT29 colon = test system: HT29 colon
OVCAR-3 ovarian = test system: OVCAR-3 ovarian
CAKI-1 renal = test system: CAKI-1 renal
UACC-257 melanoma = test system: UACC-257 melanoma
EKVX NSCLC = test system: EKVX NSCLC
M14 melanoma = test system: M14 melanoma
NCI-H23 lung = test system: NCI-H23 lung
TK-10 renal = test system: TK-10 renal
UO-31 renal = test system: UO-31 renal
SNB-75 CNS = test system: SNB-75 CNS
MCF7 breast = test system: MCF7 breast
HL-60(TB) leukemia = test system: HL-60(TB) leukemia
A549 NSCLC = test system: A549 NSCLC
SNB-19 CNS = test system: SNB-19 CNS
NCI-H460 lung = test system: NCI-H460 lung
ACHN renal = test system: ACHN renal
SF-268 CNS = test system: SF-268 CNS
U251 CNS = test system: U251 CNS
SN12C renal = test system: SN12C renal
SK-OV-3 ovarian = test system: SK-OV-3 ovarian
BT-549 breast = test system: BT-549 breast
CCRF-CEM leukemia = test system: CCRF-CEM leukemia
SW-620 colon = test system: SW-620 colon
COLO 205 colon = test system: COLO 205 colon
HOP-62 NSCLC = test system: HOP-62 NSCLC
NCI-H226 lung = test system: NCI-H226 lung
K-562 leukemia = test system: K-562 leukemia
MDA-N = test system: MDA-N
HCT-15 colon = test system: HCT-15 colon
KM12 colon = test system: KM12 colon
SK-MEL-2 melanoma = test system: SK-MEL-2 melanoma
UACC-62 melanoma = test system: UACC-62 melanoma
A498 renal = test system: A498 renal
HCT-116 colon = test system: HCT-116 colon
RXF 393 renal = test system: RXF 393 renal
SF-295 CNS = test system: SF-295 CNS
OVCAR-4 ovarian = test system: OVCAR-4 ovarian
DU-145 prostate = test system: DU-145 prostate
PC-3 prostate = test system: PC-3 prostate
T-47D breast = test system: T-47D breast
MDA-MB-231 breast = test system: MDA-MB-231 breast
MDA-MB-435 = test system: MDA-MB-435
MOLT-4 leukemia = test system: MOLT-4 leukemia
786-0 renal = test system: 786-0 renal
HOP-92 NSCLC = test system: HOP-92 NSCLC
SK-MEL-28 melanoma = test system: SK-MEL-28 melanoma
LOX IMVI melanoma = test system: LOX IMVI melanoma
NCI/ADR-RES ovarian = test system: NCI/ADR-RES ovarian
OVCAR-8 ovarian = test system: OVCAR-8 ovarian
HS 578T breast = test system: HS 578T breast
NCI-H522 lung = test system: NCI-H522 lung
MALME-3M melanoma = test system: MALME-3M melanoma
OVCAR-5 ovarian = test system: OVCAR-5 ovarian
SF-539 CNS = test system: SF-539 CNS

SMILES: O=C1/C(=N\n2c(-c3ccncc3)n[nH]c2=S)c2cc(Cl)ccc2N1CN1CCCCC1
- TGI (SK-MEL-5 melanoma): > 100 µM
- TGI (IGROV1 ovarian): 75 µM
- TGI (HT29 colon): > 100 µM
- TGI (OVCAR-3 ovarian): > 100 µM
- TGI (CAKI-1 renal): > 100 µM
- TGI (UACC-257 melanoma): 76.2 µM
- TGI (EKVX NSCLC): > 100 µM
- TGI (M14 melanoma): > 100 µM
- TGI (NCI-H23 lung): > 100 µM
- TGI (TK-10 renal): > 100 µM
- TGI (UO-31 renal): > 100 µM
- TGI (SNB-75 CNS): > 100 µM
- TGI (MCF7 breast): > 100 µM
- TGI (HL-60(TB) leukemia): 47 µM
- TGI (A549 NSCLC): > 100 µM
- TGI (SNB-19 CNS): > 100 µM
- TGI (NCI-H460 lung): > 100 µM
- TGI (ACHN renal): > 100 µM
- TGI (SF-268 CNS): > 100 µM
- TGI (U251 CNS): > 100 µM
- TGI (SN12C renal): > 100 µM
- TGI (SK-OV-3 ovarian): > 100 µM
- TGI (BT-549 breast): > 100 µM
- TGI (CCRF-CEM leukemia): 81.1 µM
- TGI (SW-620 colon): > 100 µM
- TGI (COLO 205 colon): > 100 µM
- TGI (HOP-62 NSCLC): > 100 µM
- TGI (NCI-H226 lung): > 100 µM
- TGI (K-562 leukemia): > 100 µM
- TGI (MDA-N): > 100 µM
- TGI (HCT-15 colon): > 100 µM
- TGI (KM12 colon): > 100 µM
- TGI (SK-MEL-2 melanoma): 59.2 µM
- TGI (UACC-62 melanoma): > 100 µM
- TGI (A498 renal): > 100 µM
- TGI (HCT-116 colon): > 100 µM
- TGI (RXF 393 renal): 38.3 µM
- TGI (SF-295 CNS): > 100 µM
- TGI (OVCAR-4 ovarian): > 100 µM
- TGI (DU-145 prostate): > 100 µM
- TGI (PC-3 prostate): > 100 µM
- TGI (T-47D breast): > 100 µM
- TGI (MDA-MB-231 breast): > 100 µM
- TGI (MDA-MB-435): > 100 µM
- TGI (MOLT-4 leukemia): 50.3 µM
- TGI (786-0 renal): > 100 µM
- TGI (HOP-92 NSCLC): > 100 µM
- TGI (SK-MEL-28 melanoma): > 100 µM
- TGI (LOX IMVI melanoma): 40.2 µM
- TGI (NCI/ADR-RES ovarian): > 100 µM
- TGI (OVCAR-8 ovarian): > 100 µM
- TGI (HS 578T breast): 93.2 µM
- TGI (NCI-H522 lung): 33.2 µM
- TGI (MALME-3M melanoma): > 100 µM
- TGI (OVCAR-5 ovarian): > 100 µM
- TGI (SF-539 CNS): > 100 µM
